The text below walks through data of ChEMBL document CHEMBL3507680, “University of Dundee, Gates Library screen for HepG2 cell viability”.

SMILES strings stand for the structures.

The series can be described thus: Human HepG2 cell viability assay in 384 well format. In kind it is toxicity, cell-based. Set-up: dose 125 nL, time 70.5 hour; cytotoxicity at 70.5 h: concentration not given beside the values. Particulars: HepG2 cells, read-out: Inhibition.
As to `O=c1[nH]cc(N2CCCCCC2)c(=O)[nH]1`, the cytotoxicity at 70.5 h was 9.28%. The value for `COc1ccc(CNC[C@H]2COCc3nc4cc(F)ccc4n32)cn1` was -18.3%; that for `COc1ccc2nc(C[C@@H]3C[C@@H](C(C)C)[C@H](CN)C=C3C)[nH]c2n1` was -4.84%. On to `CCS(=O)(=O)c1ccc2oc([C@H]3CCN(Cc4ccncc4)C3)nc2c1`, for which the cytotoxicity at 70.5 h was 6.63%. Take `COC(=O)[C@H]1CN(C(=O)NC(C)C)CCN1C(=O)c1cccs1`: the cytotoxicity at 70.5 h was -5.45%. For `O=C(NCc1cccnc1)[C@H]1CN2CCC1C[C@@H]2Cn1cc(CO)nn1` (stereo partly drawn) the value was -6.61%; for `Cc1cccc(-c2noc([C@@H]3Cc4nc[nH]c4CN3)n2)c1`, -3%; for `CC1=C[C@@H](CN2CCC(CO)CC2)[C@H](C(C)C)C[C@H]1Cc1nnc(C)o1`, -1.39%.

Turning to `COCCOc1ccnc(-c2noc([C@@H]3CCCN3CC(C)C)n2)c1`, the cytotoxicity at 70.5 h is -5.97%.

Take `c1cc(-c2noc([C@@H]3CCCN3C3CCC3)n2)cc(N2CCCC2)n1`: the cytotoxicity at 70.5 h was -6.56%. Regarding `CC(C)CN1C[C@@H]2OCC(=O)N(c3ccccc3)[C@@H]2C1`, the cytotoxicity at 70.5 h is -15.4%.

`O=C1CO[C@H]2CN(S(=O)(=O)c3ccccc3)C[C@H]2N1CC1CCCCC1`: the cytotoxicity at 70.5 h is -11.1%. The value for `CC(C)NC(=O)N[C@H]1C[C@@H](c2nc(-c3ccc(F)cc3)no2)N(C)C1` was -4.13%; that for `Cc1ccc(CN2CC[C@H](c3nc4cccc(C(N)=O)c4[nH]3)C2)cc1` was 31.1%; that for `O=C(NC[C@H]1C[C@@H]2CCN1C[C@@H]2CN1CCCC1)c1ccco1` was -4.55%. In the case of `Clc1ccc(-c2nnc([C@H]3CCN(C4CCCCC4)C3)o2)cc1`, the cytotoxicity at 70.5 h is -3.54%. For `COCc1cc(CC2(NC3CCCCC3)COC2)no1` the value was 9.57%. The value for `CC1(C)[C@H](Cc2cc(CN3CCOCC3)on2)C[C@@H]1NC(=O)C1CCC1` was 11.5%. In the case of `CN(C)[C@H]1C[C@@H](Cc2cc(CO)on2)C1(C)C`, the cytotoxicity at 70.5 h was -14.4%. For `COc1ccc(CN[C@@H]2CO[C@H](CNC(=O)N3CCOCC3)[C@H]2O)cc1` the value was 2.1%.

Turning to `CC(C)(C)CC(=O)N[C@@H]1CO[C@H](CNC(=O)c2ccncc2)[C@H]1O`, the cytotoxicity at 70.5 h is -2.51%. The value for `COCc1cc(C[C@@H]2CC[C@H](O)[C@@H](CN(CC(C)C)CC(C)C)O2)no1` was -0.301%; that for `O=C(NC[C@H]1OC[C@@H](NCc2cccs2)[C@@H]1O)N1CCOCC1` was 8.48%.

Turning to `Cc1ccc(CNC2(Cc3cc(-c4ccccc4)on3)COC2)o1`, the cytotoxicity at 70.5 h was -0.988%.

In the case of `CC(C)CN1CC[C@H](c2nnc(COc3ccc(F)cc3)o2)C1`, the cytotoxicity at 70.5 h was -3.77%. The value for `O=C1C[C@@H]2CCN(Cc3ccccc3)C[C@@H]2CCN1c1ccccc1` was 6.43%. The value for `CN1CCOC[C@H]1c1nc(C(C)(C)C)c[nH]1` was 11.4%; that for `CN1CCOC[C@H]1c1nc(-c2cccnc2)c[nH]1` was -7.84%; that for `CN(C)[C@@H]1CO[C@H](CNC(=O)Nc2ccccc2)[C@H]1O` was -1.04%. In the case of `O[C@H]1CC[C@@H](Cc2cc(-c3ccc(F)cc3)on2)O[C@@H]1CNCC1CC1`, the cytotoxicity at 70.5 h was -5.85%.

Take `CCCN1C(=O)[C@@H]2[C@@H](CCN2C(=O)COC)N(Cc2cccs2)C1=O`: the cytotoxicity at 70.5 h was found to be 11.5%. With `CC(=O)NC[C@@H]1C=C(C)[C@H](CC(=O)NCCN(C)C)C[C@H]1C(C)C`, the cytotoxicity at 70.5 h came to 23.8%. For `O=C(NCc1ccc(Cl)cc1)[C@@H]1Cc2[nH]cnc2CN1CC1CC1` the value was -6.64%; for `O=C(N[C@@H]1CNCCC[C@H]1O)c1ccc(OCCN2CCCC2)cc1`, -3.24%; for `Nc1ncncc1-c1noc([C@@H]2CCCN2Cc2cccnc2)n1`, -9.55%. Consider `O=C1CO[C@H]2CN(S(=O)(=O)c3ccccc3)C[C@H]2N1Cc1ccccn1`, for which the cytotoxicity at 70.5 h is -15%. For `O=C(NC[C@H]1OC[C@@H](NC2COC2)[C@@H]1O)Nc1ccccc1` the value was -1.19%; for `CC(C)NC(=O)O[C@H]1COCCN(c2nc3ccccc3s2)C1`, -5.43%. For `COCCO[C@H]1COCCN(C2CCN(C)CC2)C1`, the cytotoxicity at 70.5 h was found to be 12.5%. The value for `Cn1nc(CNC(=O)CN2C(=O)CCC2=O)cc1C1CC1` was 1.45%; that for `Cn1nc(CNC(=O)C2CCN(S(C)(=O)=O)CC2)cc1C1CC1` was -3.55%; that for `O=C(NCc1cc(C2CC2)n(C2CCCC2)n1)C1CC1` was -9.71%. In the case of `CCOCC(=O)NCc1cc(C2CC2)n(C2CCCC2)n1`, the cytotoxicity at 70.5 h was found to be 0.0223%. Regarding `COc1ccc(S(=O)(=O)C2CCN(C(=O)c3cc(C)cs3)CC2)cc1`, the cytotoxicity at 70.5 h is 1.95%. For `Cn1cnnc1S(=O)(=O)C1CCN(C(=O)c2ccco2)CC1` the value was 10.3%; for `O=C(CCc1ccccc1Br)N1CC(S(=O)(=O)C2CCCCC2)C1`, -5.63%; for `O=C(c1ccco1)N1CC(S(=O)(=O)c2ccc(Cl)cc2)C1`, -10.1%. The value for `O=C(NC1CCN(c2nccs2)CC1)c1cccs1` was 10.5%; that for `Cc1cccc(CC(=O)Nc2cnn(C3CCOC3)c2)c1` (stereo not drawn) was -13.6%. The value for `COC(CNC(=O)C1CCCC1)c1ccc(C)s1` (stereo not drawn) was -1.8%; that for `COC(CNC(=O)c1cc(C)on1)c1ccccc1C` (stereo not drawn) was -2.28%; that for `CCC(CNC(=O)OC)(OC)c1ccccc1` (stereo not drawn) was -0.855%. As for `O=C(Nc1ccccc1)C1CCCN(c2cc(-n3cncn3)ncn2)C1` (stereo not drawn), the cytotoxicity at 70.5 h was -1.76%.

Regarding `O=C(CN1CCOCC1)Nc1ccc(C(F)(F)F)cc1Cl`, the cytotoxicity at 70.5 h was found to be 14.6%. Turning to `CCOC(=O)N1CCNC(c2cccs2)C1` (stereo not drawn), the cytotoxicity at 70.5 h came out at 21.8%. In the case of `NCc1cnc(Nc2ccccc2)nc1`, the cytotoxicity at 70.5 h was -17.3%. As for `CNCc1cnc(Nc2ccccc2)nc1`, the cytotoxicity at 70.5 h is -5.59%.

As for `COCC(=O)N1CCC2(CCC(C(=O)N3CCCC3)O2)CC1` (stereo not drawn), the cytotoxicity at 70.5 h is 10.4%. For `CCN1C(=O)CCC12CCN(S(=O)(=O)c1ccc(C#N)cc1)CC2` the value was 15.5%. For `CCN1C[C@H]2CCN(C(=O)Nc3ccccc3C)CC[C@H]2S1(=O)=O` the value was 15.6%; for `Cc1ccccc1NC(=O)N1CC[C@@H]2CN(CC(C)C)S(=O)(=O)[C@@H]2CC1`, -9.9%; for `CCS(=O)(=O)N1CCC2(CCCC(=O)N2C)CC1`, -11%.

Regarding `CCN1C(=O)CC[C@]12CC[C@@H](NC(=O)c1cc(C)on1)CC2`, the cytotoxicity at 70.5 h was -7.54%.

For `CN1C(=O)CCC12CCN(S(=O)(=O)c1ccccc1)CC2`, the cytotoxicity at 70.5 h was -13.4%. `CCN1C(=O)C[C@@H]2[C@@H]1CCN2S(=O)(=O)c1ccccc1`: the cytotoxicity at 70.5 h is -12.3%. `CC(=O)N1CC2(CCN(S(=O)(=O)N(C)C)CC2)C2(CCNC2=O)C1` (stereo not drawn): the cytotoxicity at 70.5 h was -1.55%.

For `Cc1ccccc1NC(=O)N1CC[C@@H]2CN(C)S(=O)(=O)[C@@H]2CC1`, the cytotoxicity at 70.5 h was -8.26%. For `Cc1oncc1C(=O)N1CC2CC1(C(=O)NCc1ccco1)C2` the value was -10.9%; for `COc1cc(N2CCC3(CC2)CC(N2CCOCC2)CO3)ncn1` (stereo not drawn), -2.9%. Regarding `Cc1ccc(C(=O)N2C[C@H]3CNC[C@H]3C2)cn1`, the cytotoxicity at 70.5 h stood at 25.5%. Regarding `NC1CCc2c(ccc(=O)n2CC2CC2)C1` (stereo not drawn), the cytotoxicity at 70.5 h was determined as 27.6%. With `O=C(CC1CC1)N1C[C@H]2CN(CC3CC3)C(=O)[C@H]2C1`, the cytotoxicity at 70.5 h was -1.89%. For `O=C(C1CC1)N1CC2(CCNCC2)C1` the value was -8.48%. For `O=C(C1CCC2(CCN(CC3CC3)CC2)O1)N1CCCC1` (stereo not drawn), the cytotoxicity at 70.5 h is -7.11%. With `COc1cc(N2CCC3(CC2)CC(N2CCOCC2)C3)ncn1`, the cytotoxicity at 70.5 h was -16%.

As to `O=C(NC1CC1)N1CCC2(CC1)C(=O)NCCN2Cc1ccccc1`, the cytotoxicity at 70.5 h is -13.6%.

As for `COc1ccc(C[C@H]2CN(C3CCOCC3)CC[C@H]2OCC2CC2)cc1`, the cytotoxicity at 70.5 h is 20%. The value for `COc1ccc(CN2C[C@@H]3CN(Cc4ccoc4)C[C@@H]3C2=O)cc1` was -6.31%; that for `O=C(C1CCC2(CCN(CC3CCOCC3)CC2)O1)N1CCCCO1` (stereo not drawn) was -5.73%. The value for `c1ccc(C[C@H]2CN(C3CCOCC3)CC[C@H]2OCC2CC2)cc1` was -8.83%. The value for `CN1CCC2(CCCN(c3nccc(C(F)(F)F)n3)C2)CC1` was -11.3%. Turning to `CN(C)C[C@@H]1CCC[C@@H]2CN(c3ncccn3)C[C@@H]21`, the cytotoxicity at 70.5 h was -13%. The value for `CN(C)C[C@@H]1CCC[C@@H]2CN(c3cccnc3)C[C@@H]21` was -1.5%; that for `COCCN(C)C[C@@H]1CCC[C@@H]2CN(c3ncccn3)C[C@@H]21` was -0.79%. For `Cc1cccc(C(=O)N2C[C@@H]3CCN(C(C)C)C[C@@H]3C2)c1` the value was 19%. The value for `Cc1ccc(CN2C(=O)CC[C@]23CC[C@@H](NCC2CCOC2)CC3)cc1` (stereo partly drawn) was 18.5%. For the compound `CC(=O)N1CCC2(CN(CC3CCCC3)C2)C1`, the cytotoxicity at 70.5 h was -3.32%.

Consider `CCN1CC(=O)NCC12CCN(C(=O)c1ccno1)C2` (stereo not drawn), for which the cytotoxicity at 70.5 h came to 2.94%. Regarding `CCN(C)C1COC2(CCN(C(=O)c3ccc(Cl)cc3)CC2)C1` (stereo not drawn), the cytotoxicity at 70.5 h was -9.04%.

As for `COc1cc(N2CCC3(CC2)CC(N2CCN(C)CC2)CO3)ncn1` (stereo not drawn), the cytotoxicity at 70.5 h is -20.9%. For `Cc1ccc(CN2CCC3(CC2)C(=O)N(CC(C)C)CCN3C)o1`, the cytotoxicity at 70.5 h was -10.1%. As for `O=C(C[C@H]1[C@H]2CN(Cc3ccncc3)C[C@@H]12)N1CCCC1`, the cytotoxicity at 70.5 h is 20.1%. Regarding `Cc1ccc(CN2CCc3[nH]nc(C(=O)N4CCN(C)CC4)c3C2)o1`, the cytotoxicity at 70.5 h is 23.5%.
